The target of one test is T1, CRACM1/STIM1 (Homo sapiens, UniProt Q96D31).
T1 construct: Full length human Stim1, CracM1, CracM2 and CracM3 cDNA
In words: ICRAC current inhibition in CRACM1/STIM1-CHOK1 cells (patch clamp). It is filed as cell-based. The following applies: activity class; for inhibition at 0.5 µM: 500 nM. As to the method: Manual patch clamp experiments are conducted in the tight-seal whole-cell configuration at room temperature (21-25° C.). Patch pipettes are fashioned from borosilicate glass capillary tubes and have resistances between 2-4 MO after filling with standard intracellular solution. High resolution current recordings are acquired with a computer-based patch clamp amplifier system (EPC-10, HEKA, Lambrecht, Germany). All voltages are corrected for a liquid junction potential of 10 mV between external and internal solutions with glutamate as the intracellular anion. Currents are filtered at 2.9 kHz and digitized at 10 μs intervals. Capacitive currents and series resistance are determined and corrected before each voltage ramp using the automatic capacitance compensation of the EPC-10.
Automated patch clamp experiments are conducted with the QPatch 16 (Sophion Bioscience, Ballerup, Denmark) at room temperature (21-25° C.). Immediately following the establishment of giga-seal whole-cell configuration, the cells membrane potential is clamped at 0 mV. Voltage ramps of 50 ms duration spanning the voltage range of −100 to +100 mV are then stimulated at a rate of 0.33 Hz. Currents are filtered at 2.9 kHz and digitized at 200 μs intervals. Capacitive currents and series resistance are determined and corrected before each voltage ramp using the automatic capacitance compensation.
In general, a whole cell patch clamp method is used to examine the effects of a compound of the invention on a channel(s) that mediates ICRAC. In such experiments, a baseline ICRAC measurement is established within the first 70 voltage ramps, or 140 seconds, for a patched cell. Then the cells are perfused with the compound to be tested and the effect of the compound on ICRAC is measured for at least an additional 440 to 500 seconds. A compound that modulates ICRAC (e.g., inhibits) is a compound that is useful in the invention for modulating CRAC ion channel activity.
ICRAC currents are measured using 50 msec voltage ramps between −100 mV to +100 mV. The voltage ramps are stimulated every 2 seconds for the first 70 sweeps, then every 5 seconds for the remainder of the experiment. The membrane potential is held at 0 mV between the test ramps. In a typical experiment, the peak inward currents will develop within 50-100 seconds. Once the ICRAC current is stabilized, the cells are perfused with a test compound in the extracellular solution for at least an additional 500 seconds.
Off-line analysis with the Heka PatchMaster software is used to separate the ICRAC membrane current from the cells basal background currents. In a typical recording, InsP3 stimulated ICRAC currents begin to develop in 6 to 12 seconds after whole cell is established. Therefore, the first 1-4 voltage ramps represent the basal membrane currents in the absence of ICRAC and the average value is subtracted from all subsequent traces. The current value at −80 mV for each ramp trace is then measured and plotted against time. The resulting current versus time data is exported into a Microsoft Excel spreadsheet. The % ICRAC inhibition in each cell is calculated by comparing the amount of current just prior to the compound perfusion to the amount of current after the cells has been perfused with the compound for 440-500 seconds. The IC50 value and Hill coefficient for each compound is estimated by fitting all the individual data points to a single-site Hill equation.
TREx™-CHO cells were transfected with human Stim1 (recombinant DNA in pcDNA4/TO/myc-His™ A with a myc epitope tag in the N-terminal) and either CracM1, CracM2 or CracM3 (recombinant DNA in pcDNA 3.1 with a HA epitope tag in the N-terminal). Stably expressing cells were selected by growing the transfected cells in antibiotics for two to three weeks. Individual cell clones were isolated via serial dilution. […]

Another test relates to IL-2. The experiment in a line: Inhibition of IL-2 production in PHA-activated Jurkat cells (1% FBS), ELISA. As to conditions: Homo sapiens, activity class, read-out: IL-2 current inhibition Jurkat/PHA/1% FBS IC50. It counts as cell-based. The method, then: Jurkat cells were placed in a 96 well plate (0.5 million cells per well in 1% FBS medium), and then a test compound of this invention was added at different concentrations. After 10 minutes, the cells were activated with PHA (final concentration 2.5 μg/mL) and incubated for 20 hours at 37° C. under 5% CO2. The final volume was 200 Following incubation, the cells were centrifuged, and the supernatants collected and stored at −70° C. prior to assaying for IL-2 production. A commercial ELISA kit (IL-2 Eli-pair, Diaclone Research, Besancon, France) was used to detect production of IL-2, from which dose response curves were obtained. The IC50 value was calculated as the concentration at which 50% of maximum IL-2 production after stimulation was inhibited versus a non-stimulation control.
(In general: In an ELISA, binding on a coated surface is turned into a signal by an enzyme label.)

As a reminder, the inhibition is the relative decrease from the control value, in per cent. A low value points to a weak effect.

T1 sequence (Q96D31 whole entry): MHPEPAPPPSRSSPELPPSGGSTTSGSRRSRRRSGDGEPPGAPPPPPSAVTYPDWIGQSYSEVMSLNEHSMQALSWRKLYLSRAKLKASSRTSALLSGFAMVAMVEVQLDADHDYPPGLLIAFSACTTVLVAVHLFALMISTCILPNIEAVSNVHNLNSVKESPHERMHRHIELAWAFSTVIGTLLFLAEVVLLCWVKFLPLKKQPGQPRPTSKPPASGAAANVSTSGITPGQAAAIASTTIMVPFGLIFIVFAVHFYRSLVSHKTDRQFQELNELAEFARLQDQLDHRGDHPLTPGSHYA

With `Cc1cc(CCc2cccnc2)sc1-c1ccc(NC(=O)c2c(F)cccc2F)cc1` [Compound 8, 2,6-difluoro-N-(4-(3-methyl-5-(2-(pyridin-3-yl)ethyl)thiophen-2-yl)phenyl)benzamide], on CRACM1/STIM1, the inhibition at 0.5 µM lay in the range of 70 to 100%. The IC50 in the test on IL-2 was less than 50 nM.

`C=C(C)c1sc(-c2cccnc2)cc1-c1ccc(NC(=O)c2c(F)cccc2F)nc1` [Compound 10, 2,6-difluoro-N-(5-(2-(prop-1-en-2-yl)-5-(pyridin-3-yl)thiophen-3-yl)pyridin-2-yl)benzamide] yielded an inhibition at 0.5 µM against CRACM1/STIM1 of 50 to 70%. Besides, the IC50 in the test on IL-2 was less than 50 nM.

Take `CC(C)c1sc(-c2cccnc2)cc1-c1ccc(NC(=O)c2c(F)cccc2F)nc1` [Compound 11, 2,6-difluoro-N-(5-(2-isopropyl-5-(pyridin-3-yl)thiophen-3-yl)pyridin-2-yl)-benzamide]: the inhibition at 0.5 µM on CRACM1/STIM1 is less than 50%. For the same compound, the IC50 in the test with IL-2 was less than 50 nM.

Compound `C=C(C)c1sc(-c2cccnc2)cc1-c1ccc(NC(=O)c2c(F)cccc2F)cc1` [Compound 14, 2,6-difluoro-N-(4-(2-(prop-1-en-2-yl)-5-(pyridin-3-yl)thiophen-3-yl)phenyl)benzamide] had an inhibition at 0.5 µM at CRACM1/STIM1 of less than 50%. Moreover, in the test on IL-2, the IC50 is less than 50 nM.

In turn, `CC(C)c1sc(-c2cccnc2)cc1-c1ccc(NC(=O)c2c(F)cccc2F)cc1` [Compound 15, 2,6-difluoro-N-(4-(2-isopropyl-5-(pyridin-3-yl)thiophen-3-yl)phenyl)benzamide] showed an inhibition at 0.5 µM against CRACM1/STIM1 of 50 to 70%. Besides, the IC50 in the test on IL-2 is less than 50 nM.

As to `Cc1sc(-c2cccnc2)nc1-c1ccc(NC(=O)c2c(F)cccc2F)cc1` [F], the inhibition at 0.5 µM against CRACM1/STIM1 fell in the range of 50 to 70%. For the same compound, the IC50 with IL-2 was less than 50 nM.

In the case of `Cc1sc(-c2cnn(C)c2)nc1-c1ccc(NC(=O)c2c(F)cccc2F)cc1` [H], on CRACM1/STIM1, the inhibition at 0.5 µM is 70 to 100%. Further, the IC50 in the test on IL-2 is less than 50 nM.

As for `Cc1sc(C(=O)c2cccnc2)cc1-c1ccc(NC(=O)c2c(F)cccc2F)cc1` [O], the “ICRAC current inhibition CRACM1/STIM1-CHOK1 % Inhibition at 500 nM” value on CRACM1/STIM1 is “High”. The IC50 in the test on IL-2 is less than 50 nM.

The values are drawn from patent publication US8314130B2, “Compounds inclunding substituted pyridines for inflammation and immune-related uses” (Synta Pharmaceuticals Corp., priority 2008, dated 2012).
